Assay results taken from the supplement of paper PMC10307832.

Tests used:
Test in all cases: relative viability (nuclei count vs DMSO), 5 days (fraction); higher = more cells survive
[1] = compound: Cn1cc(-c2cnn3c(N)c(Br)c([C@@H]4CCCNC4)nc23)cn1 + CC(=O)c1c(C)c2cnc(Nc3ccc(N4CCNCC4)cn3)nc2n(C2CCCC2)c1=O [Palbociclib] (partner 0.5 µM)
Method in brief: (§1)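 Lung cancer cell lines in 1536-well plates got either a single drug or a fixed anchor-drug dose together with five library-drug doses (not always all listed) in √10 steps, by pin tool, on the day after seeding. Nuclei were counted after 5 days, and relative viability is the treated-to-vehicle ratio of nuclei counts. Values are medians of duplicate plates.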

[2] = compound: Cn1cc(-c2cnn3c(N)c(Br)c([C@@H]4CCCNC4)nc23)cn1 + O=C(c1cc(Cc2n[nH]c(=O)c3ccccc23)ccc1F)N1CCN(C(=O)C2CC2)CC1 [Olaparib] (partner 8 µM)
Method in brief: as §1

[3] = compound: Cn1cc(-c2cnn3c(N)c(Br)c([C@@H]4CCCNC4)nc23)cn1 + Cc1nc(NC(=O)N2CCC[C@H]2C(N)=O)sc1-c1ccnc(C(C)(C)C(F)(F)F)c1 [Alpelisib] (partner 2 µM)
Method in brief: as §1

[4] = compound: Cn1cc(-c2cnn3c(N)c(Br)c([C@@H]4CCCNC4)nc23)cn1 + Nc1nc2[nH]cc(CCc3ccc(C(=O)N[C@@H](CCC(=O)O)C(=O)O)cc3)c2c(=O)[nH]1 [Pemetrexed] (partner 0.2 µM)
Method in brief: as §1

Row | Cell Line | relative viability ([1]; first compound 0.05 µM) | relative viability ([1]; first compound 0.1581 µM) | relative viability ([1]; first compound 0.5 µM) | relative viability ([1]; first compound 1.581 µM) | relative viability ([1]; first compound 5 µM) | relative viability ([2]; first compound 0.05 µM) | relative viability ([2]; first compound 0.1581 µM) | relative viability ([2]; first compound 0.5 µM) | relative viability ([2]; first compound 1.581 µM) | relative viability ([2]; first compound 5 µM) | relative viability ([3]; first compound 0.05 µM) | relative viability ([3]; first compound 0.1581 µM) | relative viability ([3]; first compound 0.5 µM) | relative viability ([3]; first compound 1.581 µM) | relative viability ([3]; first compound 5 µM) | relative viability ([4]; first compound 0.05 µM) | relative viability ([4]; first compound 0.1581 µM) | relative viability ([4]; first compound 0.5 µM) | relative viability ([4]; first compound 1.581 µM) | relative viability ([4]; first compound 5 µM)
1 | HCC-366 | 0.399 | 0.463 | 0.359 | 0.267 | 0.3 | 0.392 | 0.372 | 0.296 | 0.229 | 0.137 | 0.439 | 0.539 | 0.493 | 0.368 | 0.156 | 0.166 | 0.108 | 0.128 | 0.0814 | 0.0667
2 | HCC-827 | 0.48 | 0.437 | 0.491 | 0.471 | 0.451 | 0.707 | 0.622 | 0.766 | 0.628 | 0.339 | 0.992 | 1.04 | 1.03 | 1.06 | 1.06 | 0.269 | 0.202 | 0.249 | 0.228 | 0.187
3 | HOP-62 | 0.438 | 0.5 | 0.485 | 0.417 | 0.334 | 0.321 | 0.262 | 0.208 | 0.241 | 0.199 | 1.1 | 0.815 | 0.997 | 0.649 | 1.19 | 0.309 | 0.252 | 0.307 | 0.22 | 0.203
4 | IA-LM |  |  |  |  |  | 0.964 | 0.932 | 0.902 | 0.643 | 0.358 | 0.757 | 1.05 | 0.574 | 0.591 | 0.589 |  |  |  |  | 
5 | LC-2-ad | 0.499 | 0.515 | 0.441 | 0.435 | 0.483 | 0.753 | 0.686 | 0.648 | 0.727 | 0.726 | 0.873 | 1.04 | 0.837 | 0.917 | 0.838 | 0.293 | 0.295 | 0.265 | 0.25 | 0.239
6 | LCLC-97TM1 | 0.248 | 0.236 | 0.242 | 0.242 | 0.178 | 0.346 | 0.605 | 0.327 | 0.382 | 0.38 | 0.188 | 0.299 | 0.23 | 0.228 | 0.189 | 0.172 | 0.185 | 0.189 | 0.171 | 0.126
7 | LCLC-103H | 0.521 | 0.447 | 0.467 | 0.515 | 0.466 | 0.842 | 0.804 | 0.77 | 0.746 | 0.711 | 0.957 | 0.962 | 0.867 | 1.05 | 0.847 | 0.539 | 0.463 | 0.482 | 0.428 | 0.298
8 | LK-2 | 0.703 | 0.658 | 0.678 | 0.542 | 0.431 | 0.664 | 0.648 | 0.771 | 0.568 | 0.373 | 1.07 | 0.945 | 1.11 | 0.618 | 0.595 | 0.271 | 0.309 | 0.271 | 0.278 | 0.124
9 | LOU-NH91 | 0.544 | 0.539 | 0.47 | 0.506 | 0.52 | 0.938 | 0.933 | 0.867 | 0.774 | 0.778 | 0.721 | 0.664 | 0.695 | 0.658 | 0.561 | 0.398 | 0.289 | 0.254 | 0.25 | 0.64
10 | LU99A | 0.421 | 0.458 | 0.386 | 0.392 | 0.339 | 0.244 | 0.235 | 0.236 | 0.221 | 0.163 | 0.534 | 0.541 | 0.492 | 0.491 | 0.388 | 0.19 | 0.144 | 0.139 | 0.124 | 0.129
11 | NCI-H522 | 1.1 | 0.918 | 0.757 | 1.07 | 0.95 | 0.674 | 0.749 | 0.68 | 0.523 | 0.633 |  |  |  |  |  | 0.938 | 0.913 | 1.02 | 1.01 | 0.865
12 | NCI-H596 |  |  |  |  |  | 0.633 | 0.596 | 0.622 | 0.655 | 0.621 | 0.939 | 0.498 | 0.47 | 0.494 | 0.478 | 0.481 | 0.462 | 0.534 | 0.371 | 0.326
13 | NCI-H727 | 0.646 | 0.686 | 0.589 | 0.581 | 0.642 | 0.754 | 0.873 | 0.68 | 0.646 | 0.559 | 0.575 | 0.535 | 0.534 | 0.412 | 0.361 |  |  |  |  | 
14 | NCI-H1299 |  |  |  |  |  | 0.981 | 0.968 | 1 | 0.738 | 0.472 | 1.03 | 1.13 | 1.09 | 1.05 | 0.954 |  |  |  |  | 
15 | NCI-H1563 |  |  |  |  |  |  |  |  |  |  | 0.827 | 0.835 | 0.935 | 0.8 | 0.762 | 0.754 | 0.647 | 0.782 | 0.753 | 0.532
16 | NCI-H1648 | 0.208 | 0.281 | 0.254 | 0.305 | 0.259 | 0.64 | 0.829 | 1.1 | 1.08 | 0.583 |  |  |  |  |  | 0.686 | 0.673 | 0.68 | 0.715 | 0.668
17 | NCI-H1650 | 0.248 | 0.366 | 0.281 | 0.244 | 0.254 | 0.625 | 0.82 | 0.851 | 0.616 | 0.444 |  |  |  |  |  | 0.368 | 0.288 | 0.292 | 0.239 | 0.224
18 | NCI-H1703 |  |  |  |  |  | 0.416 | 0.364 | 0.364 | 0.233 | 0.123 | 0.374 | 0.318 | 0.259 | 0.161 | 0.139 |  |  |  |  | 
19 | NCI-H2342 | 0.531 | 0.55 | 0.446 | 0.56 | 0.507 | 0.467 | 0.585 | 0.448 | 0.463 | 0.438 |  |  |  |  |  | 0.867 | 0.846 | 0.762 | 0.788 | 0.778
